The record followed here is patent US20080171783A1, “COMPOSITIONS AND METHODS FOR TREATING HYPERPROLIFERATIVE DISEASE” (Migenix Inc., priority 2006, published 2008).

Series [1] is described as follows: Cytotoxicity Huh-7 cells (MTS/PMS). Type of series: cell-based. Conditions: human, 3-day incubation. As for the experimental part: Cytotoxicity of compounds for use in treating hyperproliferative diseases or disorders was tested in Huh-7 cells using tetrazolium salt MTS combined with the electron acceptor PMS in a 96-well format. Six doses of each compound was tested, starting at about 1.2 μM to 0.4 μM serially diluted in a final 1% DMSO solution in DMEM/F12 media. Terfenadine was used as a positive control. Cells were seeded at 2.5×10^5 cells/mL in each well of the 96-well plates in a final volume of 0.1 mL, and then incubated at 37° C. in the presence of 5% CO2 overnight. Compounds (in media) were added the following day and the treated cells were incubated another 3-days at 37° C. in the presence of 5% CO2. After the 3-day incubation, 20 μL of MTS/PMS (3-(4,5-dimethylthiazol-2-yl)-5-(3-carboxymethoxy-phenyl)-2-(4-sulfophenyl)-2H-tetrazolium) was added to each well. After about a one to four hour incubation of MTS/PMS at 37° C. and 5% CO2—that is, until an OD490 absorbance of ≧0.6 for the wells containing cells with media only, the level of cytotoxicity at each concentration was calculated. […] Dose response results from the cytotoxicity assay (CC50) are provided in Table 4 in comparison with IC50 data (from Table 2)

Series [2] concerns the target T1, Calf polymerase alpha (Bos taurus, UniProt A0AAA9TD94).
T1 construct: purchased Replizyme Ltd (Heslington, York, UK)
T1 sequence (A0AAA9TD94 1-1441): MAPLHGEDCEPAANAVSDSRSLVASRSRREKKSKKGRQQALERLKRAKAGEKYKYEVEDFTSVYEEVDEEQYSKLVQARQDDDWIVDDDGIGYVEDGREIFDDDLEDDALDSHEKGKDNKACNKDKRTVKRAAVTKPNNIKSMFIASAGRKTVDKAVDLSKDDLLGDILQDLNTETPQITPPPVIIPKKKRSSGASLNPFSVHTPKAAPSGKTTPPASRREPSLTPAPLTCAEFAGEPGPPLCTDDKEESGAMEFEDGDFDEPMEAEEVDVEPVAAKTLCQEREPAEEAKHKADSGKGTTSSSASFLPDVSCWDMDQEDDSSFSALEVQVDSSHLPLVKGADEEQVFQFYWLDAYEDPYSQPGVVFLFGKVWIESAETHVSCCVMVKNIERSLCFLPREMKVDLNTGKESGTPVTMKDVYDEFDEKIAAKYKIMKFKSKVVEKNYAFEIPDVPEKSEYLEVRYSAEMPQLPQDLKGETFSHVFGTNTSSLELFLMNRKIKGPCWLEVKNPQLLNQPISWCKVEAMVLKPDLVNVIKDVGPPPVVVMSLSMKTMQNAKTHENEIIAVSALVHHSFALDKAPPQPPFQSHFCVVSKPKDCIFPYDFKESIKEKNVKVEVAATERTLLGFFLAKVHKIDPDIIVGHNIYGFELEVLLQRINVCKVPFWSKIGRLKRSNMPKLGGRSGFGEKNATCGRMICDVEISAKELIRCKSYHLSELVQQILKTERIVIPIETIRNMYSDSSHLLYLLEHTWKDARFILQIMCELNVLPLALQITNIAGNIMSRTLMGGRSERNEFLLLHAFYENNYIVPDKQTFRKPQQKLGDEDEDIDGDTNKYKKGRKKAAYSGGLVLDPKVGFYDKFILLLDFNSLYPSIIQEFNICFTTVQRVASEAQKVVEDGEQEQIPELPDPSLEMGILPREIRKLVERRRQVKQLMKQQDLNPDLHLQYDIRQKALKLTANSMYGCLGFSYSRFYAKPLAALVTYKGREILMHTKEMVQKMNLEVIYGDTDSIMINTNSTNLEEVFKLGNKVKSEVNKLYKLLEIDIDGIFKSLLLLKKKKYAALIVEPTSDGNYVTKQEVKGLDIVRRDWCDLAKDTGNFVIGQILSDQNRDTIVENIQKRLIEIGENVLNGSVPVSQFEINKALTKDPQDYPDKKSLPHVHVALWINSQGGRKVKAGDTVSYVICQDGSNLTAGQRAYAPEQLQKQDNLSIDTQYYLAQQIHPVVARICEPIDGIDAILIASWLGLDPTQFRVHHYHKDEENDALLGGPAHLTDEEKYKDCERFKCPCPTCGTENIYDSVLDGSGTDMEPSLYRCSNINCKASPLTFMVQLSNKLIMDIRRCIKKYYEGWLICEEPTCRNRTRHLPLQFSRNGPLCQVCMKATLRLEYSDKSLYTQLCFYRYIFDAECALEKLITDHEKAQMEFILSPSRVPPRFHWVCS
The series can be described thus: Calf polymerase alpha inhibition (Replizyme kit). To be noted: for inhibition at 10 µM / % Inhibition: single point screening, at 10 μM; for IC50: dose response. Format: biochemical. As to the method:
Calf polymerase alpha and human polymerase alpha investigations were performed with a kit available from Replizyme Ltd (Heslington, York, UK).

Series [3] relates to 5 Leukemia and 5 Colon Cancer Cell Lines. As to the kind of experiment: Cell viability by XTT, cell line panel. To be noted: for ARF (Average Response Factor, Average Percentage of Control) / Range (Percentage of Control over the same 10 cell lines): 10 μM; for ARF (Average Response Factor, Average Percentage of Control) / viability at 10 µM: average of the ten Percentage of Control values; for Range (Percentage of Control over the same 10 cell lines): lowest to highest of the ten cell lines; for viability at 10 µM: read-out: ARF (Average Response Factor, Average Percentage of Control). Format: cell-based. As for the experimental part: Compounds were solubilized at […] in DMSO and were stored at −20° C. Test compounds were initially tested at a single concentration of 10 μM and a subset of test compounds were further tested in selected cell lines using a six concentration dose response curve.
Cell Preparation Cancer cell lines were passaged in T-75 flasks prior to use in the assay in cell culture medium recommended by the ATCC (American Type Culture Collection; Table 6). On the day preceding the assay, the cells were split 1:2 to assure they were in an exponential growth phase at the time of compound treatment. Total cell and viability quantification was performed using a hemocytometer and Trypan Blue dye exclusion. […] The cells were resuspended at the appropriate cell per mL (Table 6) in tissue culture medium and added to the microtitre plates in a volume of 100 μL. Colon cell lines were incubated overnight at 37° C./5% CO2 to allow for cell adherence to the plates.
Plate Format: Each plate contains cell control wells (cells only), drug calorimetric control wells (drug only) as well as experimental wells (drug plus cells). Samples were tested in triplicate at a concentration of 10 μM and five half-logarithmic dilutions.
Cell Viability by XTT: Following incubation at 37° C. in a 5% CO2 incubator for four days, the test plates were stained with the tetrazolium dye XTT (2,3-bis(2-methoxy-4-nitro-5-sulfophenyl)-5-[(phenylamino)carbonyl]-2H-tetrazolium hydroxide). XTT-tetrazolium was metabolized by the mitochondrial enzymes of metabolically active cells to a soluble formazan product. XTT solution was prepared daily as a stock of 1 mg/mL in RPMI1640. Phenazine methosulfate (PMS) solution was prepared at 0.15 mg/mL in phosphate buffered saline (PBS) and stored in the dark at −20° C. XTT/PMS stock was prepared immediately before use by adding 40 μL of PMS per mL of XTT solution. Fifty (50) microlitres of XTT/PMS was added to each well of the plate and the plate was reincubated for 4 hours at 37° C. Plates were sealed with adhesive plate sealers and shaken gently or inverted several times to mix the soluble formazan product and the plate was read spectrophotometrically at 450/650 nm with a Molecular Devices Vmax plate reader. […] An Average Response Factor (ARF) was calculated for each compound by averaging the ten Percentage of Control values for the cell lines. […] Deviations below 100% control indicate activity. The concentration of each tested compound is 10 μM.
A general note: Tetrazolium dyes change colour on reduction, which living cells bring about.

As usually defined, the CC50 is the concentration at which the toxic effect on the cells reaches its halfway point. Higher therefore signals lower toxicity to the cells. By inhibition is commonly meant the drop in the measured response relative to a control, in per cent. By IC50 is commonly meant the concentration needed to halve the response being measured. The low end stands for inhibition by little substance, the high end for a need for much substance. In series [1], `Cc1ccc(NC(=O)[C@@H](CCCCN)NC(=O)Nc2ccc(OCc3ccccc3)cc2)cc1` [Compound 172, (R)-6-AMINO-2-[3-(4-BENZYLOXY-PHENYL)-UREIDO]-HEXANOIC ACID P-TOLYLAMIDE] came in with a CC50 at 3 days of 26 µM. In series [2], the inhibition at 10 µM worked out at 60% and half-maximal inhibition (IC50) was put at 7.3 µM.
By % Inhibition is commonly meant the change of the read-out against control, counted positive when it falls. `CC1CCC(NC(=O)[C@H](CCCCN)NC(=O)Nc2ccc(OCc3ccccc3)cc2)CC1` (stereo partly drawn) [Compound 264, (S)-6-AMINO-2-[3-(4-BENZYLOXY-PHENYL)-UREIDO]-HEXANOIC ACID (4-METHYL-CYCLOHEXYL)-AMIDE] gave a CC50 at 3 days in series [1] of 26.6 µM. For the same compound, in series [2], the “% Inhibition” value was determined as 35%, the inhibition at 10 µM is 41% and the IC50 came to 16 µM.
With `Cc1ccc(NC(=O)[C@H](CCCCN)NC(=O)Nc2cccc(Cc3ccccc3)c2)cc1` [Compound 212, (S)-6-AMINO-2-[3-(3-BENZYL-PHENYL)-UREIDO]-HEXANOIC ACID P-TOLYLAMIDE], in series [3], the “ARF (Average Response Factor, Average Percentage of Control)” value was determined as 94.2% and the “Range (Percentage of Control over the same 10 cell lines)” value fell in the range of 52.7 to 118.6%. Also, the “% Inhibition” value in series [2] is reported as 97%.
On to `NCCCC[C@H](NC(=O)Nc1ccc(OCc2ccccc2)cc1)C(=O)Nc1cccc2c1CCC2` [Compound 321, (S)-6-AMINO-2-[3-(4-BENZYLOXY-PHENYL)-UREIDO]-HEXANOIC ACID INDAN-4-YLAMIDE], for which, in series [3], the “Range (Percentage of Control over the same 10 cell lines)” value fell in the range of 55.9 to 109.3% and the viability at 10 µM was found to be 88%. Further, the inhibition at 10 µM in series [2] was 101%.
`Cc1ccc(NC(=O)[C@H](CCCCN)NC(=O)Nc2cccc(OCc3ccccc3)c2)cc1` [Compound 204, (S)-6-AMINO-2-[3-(3-BENZYLOXY-PHENYL)-UREIDO]-HEXANOIC ACID P-TOLYLAMIDE]: in series [3], the “ARF (Average Response Factor, Average Percentage of Control)” value is reported as 89.3% and the “Range (Percentage of Control over the same 10 cell lines)” value lay within 70.1 to 116.4%. In series [2], the “% Inhibition” value came to 94%.
As to `Cc1cc2cc(NC(=O)[C@H](CCCCN)NC(=O)Nc3ccc(OCc4ccccc4)cc3)ccc2[nH]1` [Compound 206, (S)-6-AMINO-2-[3-(4-BENZYLOXY-PHENYL)-UREIDO]-HEXANOIC ACID (2-METHYL-1H-INDOL-5-YL)-AMIDE], in series [3], the “Range (Percentage of Control over the same 10 cell lines)” value is on record as 81.4 to 107.6% and the viability at 10 µM came to 92.9%. Further, the inhibition at 10 µM in series [2] came to 87%.
For the compound `Cc1ccc(NC(=O)C[C@H](CCCCN)NC(=O)Nc2ccc3c(c2)Cc2ccccc2-3)cc1` [Compound 247, (S)-7-AMINO-3-[3-(9H-FLUOREN-2-YL)-UREIDO]-HEPTANOIC ACID P-TOLYLAMIDE], in series [3], the “ARF (Average Response Factor, Average Percentage of Control)” value came to 85.6% and the “Range (Percentage of Control over the same 10 cell lines)” value lay in the range of 28.5 to 104.3%. Also, the “% Inhibition” value in series [2] worked out at 87%.
For `Cc1ccc(NC(=O)[C@H](CCCCN)NC(=O)CNc2ccccc2Oc2ccccc2)cc1` [Compound 366, (S)-6-AMINO-2-[2-(2-PHENOXY-PHENYLAMINO)-ACETYLAMINO]-HEXANOIC ACID P-TOLYLAMIDE], in that order: 100.4%, 64.8 to 121.1% and 100%.
`Cc1ccc(NC(=O)[C@H](CCCCN)NC(=O)Nc2cccc(Oc3ccccc3)c2)cc1` [Compound 98, (S)-6-AMINO-2-[3-(3-PHENOXY-PHENYL)-UREIDO]-HEXANOIC ACID P-TOLYLAMIDE]: in series [3], the “ARF (Average Response Factor, Average Percentage of Control)” value came out at 90.8% and the “Range (Percentage of Control over the same 10 cell lines)” value lay in the range of 53.8 to 126.6%. Besides, the “% Inhibition” value in series [2] is recorded as 89%.
For `Cc1ccc(NC(=O)[C@H](CCCN)NC(=O)Nc2ccc(OCc3ccccc3)cc2)cc1` [Compound 189, (S)-5-AMINO-2-[3-(4-BENZYLOXY-PHENYL)-UREIDO]-PENTANOIC ACID P-TOLYLAMIDE], in that order: 89.0%, 66.6 to 107.6% and 76%.
For `NCCCCN(CC(=O)Nc1ccc(C2CCCCC2)cc1)C(=O)Nc1ccc(C=Cc2ccccc2)cc1` [Compound 324, 2-[1-(4-AMINO-BUTYL)-3-(4-STYRYL-PHENYL)-UREIDO]-N-(4-CYCLOHEXYL-PHENYL)-ACETAMIDE], in series [3], the “Range (Percentage of Control over the same 10 cell lines)” value is 69.3 to 109.9% and the viability at 10 µM was 95.8%. For the same compound, in series [2], the inhibition at 10 µM stood at 92.5%.
As for `NCCCC[C@H](NC(=O)Nc1ccc(OCc2ccccc2)cc1)C(=O)Nc1ccc(C2CCCCC2)cc1` [Compound 117, (S)-6-AMINO-2-[3-(4-BENZYLOXY-PHENYL)-UREIDO]-HEXANOIC ACID (4-CYCLOHEXYL-PHENYL)-AMIDE], in series [3], the “Range (Percentage of Control over the same 10 cell lines)” value was in the range of 35.7 to 125.7% and the viability at 10 µM is 86.5%. For the same compound, the inhibition at 10 µM in series [2] came to 102%.
Regarding `NCCCCCCNC(=O)[C@@H](NC(=O)Nc1ccc(OCc2ccccc2)cc1)c1ccccc1` [Compound 319, (S)—N-(6-AMINO-HEXYL)-2-[3-(4-BENZYLOXY-PHENYL)-UREIDO]-2-PHENYL-ACETAMIDE], in series [3], the “Range (Percentage of Control over the same 10 cell lines)” value is recorded as 80.0 to 116.4% and the viability at 10 µM amounted to 95.6%. In addition, in series [2], the inhibition at 10 µM worked out at 71%.
